In test [1] the test system is STAT1 phosphorylation (Ser727, Tyr701). As to the kind of experiment: Immunoblot of STAT1 phosphorylation in IFN-γ-stimulated PBMC-derived macrophages. It counts as cell-based, human. The note with it: pre-treatment two hours, 60 minutes of IFN-γ stimulation, vs DMSO. As to the method:
FIGS. 3A-3F show RSK1 is activated through JAK signaling and its inhibition suppresses STAT1 phosphorylation at Ser727 in human primary macrophages in response to IFN-γ. (FIG. 3A) PBMC-derived macrophages were pre-treated with DMSO or 10 μM a pan-JAK inhibitor, pyridone-6, for two hours and then stimulated with IFN-γ for indicated time under serum starvation. Cell lysates were subjected to immunoprecipitation with normal IgG or anti-RSK1 followed by immunoblot analysis using the indicated antibodies. WCL, whole cell lysate. N=3 donors. (FIG. 3B) Immunoblots of cell lysates from macrophages that were transfected with control siRNA or RSK1 siRNA followed by stimulation with IFN-γ for indicated time under serum starvation. N=2 donors. (FIG. 3C) Immunoblots of cell lysates from macrophages that were pre-treated with DMSO or BI-D1870 for two hours and subsequently left unstimulated or stimulated with IFN-γ for 1 hour under serum starvation. (FIG. 3D) Densitometric based quantification (ImageJ Software) of STAT1-pSer727 in panel (FIG. 3C) plus three additional donors. The phosphorylation levels in cells pretreated with DMSO and stimulated were defined as 1.0. Data are means±SE. N=6 donors. **P<0.01 indicate significance for phosphorylation levels compared to control (treatment with DMSO and IFN-γ) by Dunnett's comparison test. (FIG. 3E) Macrophages were treated with DMSO or BI-d1870 for two hours followed by IFN-γ stimulation under serum starvation. Cell lysates were subjected to immunoprecipitation with normal IgG or anti-STAT1-pSer727 followed by SYPRO ruby stain or immunoblot analysis with the indicated antibodies. Immunoprecipitants in the gel (red square) were in-gel digested for parallel reaction monitoring (PRM) mass spectrometry. (FIG. 3F) Quantification of PRM ions (MS/MS ions) of the indicated STAT1 peptide harboring a phosphorylation at Ser727 (and oxidized methionine, m), generated from the digest of panel […].
Cell culture of human PBMC-derived primary macrophages. […]
(Immunoblotting shows a protein as a band on a membrane.)

Test [2] has as its system IFN-γ-induced chemokine mRNA. Briefly: Real-time PCR of IFN-γ-induced genes in PBMC-derived macrophages. It counts as cell-based, human. The note with it: 1 or 10 μM for two hours, then IFN-γ eight hours, vs DMSO. As to the method: FIGS. 4A-D show silencing RSK1 suppresses IFN-γ-induced chemokines in human primary macrophages. (FIG. 4A and FIG. 4B) Human PBMC-derived macrophages were treated with control siRNA or RSK1 siRNA followed by treatment with IFN-γ for the indicated time. Total RNA samples were subjected to real-time PCR analysis using the indicated probes and primers. GAPDH was used for normalization. (FIG. 4A) Representative results from one donor. Data are means±SD. (FIG. 4B) Quantification of the area-under-the-curve (AUC) plots of the real-time PCR data in panel (FIG. 4A). Data are means±SE. N=3 donors. *P<0.05 and **P<0.01 indicate significance for AUC of mRNA levels by paired Student's test. (FIG. 4C) Macrophages were treated with DMSO or BI-D1870 (1 or 10 μM) for two hours followed by stimulation with IFN-γ for eight hours. Total RNA samples were subjected to real-time PCR analysis using the indicated probes and primers. GAPDH was used for normalization. Data are means±SE. N=3-4 donors. *P<0.05 and **P<0.01 indicate significance for mRNA levels compared to control (treatment with DMSO and IFN-γ) by Dunnett's comparison test. […] Secreted chemokine levels were measured using ELISA. […]
Real-time PCR. […] The mRNA levels were determined by TaqMan-based real-time PCR reactions (Thermo Fisher Scientific). […] Data were normalized by human GAPDH and then calculated using the delta-delta Ct method.
In general terms: Quantitative PCR measures a nucleic acid by following its amplification.

`CC(C)CCN1c2nc(Nc3cc(F)c(O)c(F)c3)ncc2N(C)C(=O)C1C` (stereo not drawn) [BI-D1870]: in test [1], the phospho-STAT1-Ser727 signal entry is recorded as “attenuated signal” and the phospho-STAT-Tyr701 signal entry is listed as “no change”. For the same molecule, the “mRNA levels of pro-inflammatory chemokines such as CCL2/MCP-1” value in test [2] is on record as “attenuated”.
